Measured values reported in patent publication US5622839A (ZymoGenetics, Inc., priority 1995, dated 1997).

Tests used:
T47D cells = biological target: T1, T47D cells (Homo sapiens, UniProt P30988); experiment: Calcitonin competition binding assay with T47D cells (positive control); settings: T47D (pos. control)
T1 construct: T47D cells were used as a positive control; endogenous in cells; host or cells: T47D human breast carcinoma cells
T1 sequence (P30988 25-474): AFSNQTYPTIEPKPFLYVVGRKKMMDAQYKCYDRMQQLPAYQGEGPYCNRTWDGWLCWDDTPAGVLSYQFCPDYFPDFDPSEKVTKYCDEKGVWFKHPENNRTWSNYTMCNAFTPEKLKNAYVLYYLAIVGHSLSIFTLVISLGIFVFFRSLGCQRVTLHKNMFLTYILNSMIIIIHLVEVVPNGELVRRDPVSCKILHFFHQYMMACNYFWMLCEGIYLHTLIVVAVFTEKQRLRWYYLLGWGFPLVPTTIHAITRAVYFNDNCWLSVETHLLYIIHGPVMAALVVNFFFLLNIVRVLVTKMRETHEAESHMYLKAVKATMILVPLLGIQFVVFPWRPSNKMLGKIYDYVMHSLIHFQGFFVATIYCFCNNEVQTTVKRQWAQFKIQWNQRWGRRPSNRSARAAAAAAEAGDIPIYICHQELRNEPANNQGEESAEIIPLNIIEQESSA
Experimental: Clones Hollex1 and Hollex2 were tested for receptor-mediated ability to bind calcitonin using a competition assay. T47D cells were used as a positive control and BHK cells transfected with Zem1698 were used as a negative control.
The cells were rinsed in binding medium (500 ml RPMI 1640 (Sigma, St. Louis, Mo.), 1 mg/ml bacitracin (Sigma), and 1 mg/ml BSA (Boehringer Mannheim)) to remove the serum. […] The cells were incubated for 1.5 hours at room temperature, and then rinsed 3 times with PBS to remove unincorporated radioactivity. Five hundred microliters of 0.25N NaOH was added to each well to solubilize the cells. The samples were collected from each well and CPMs were counted on a gamma counter.

[1] = biological target: T2, human calcitonin receptor (Homo sapiens, UniProt P30988); experiment: cAMP response by radioimmunoassay (scintillation proximity assay) in Hollex1 and Hollex2; assay type: cell-based; settings: 10 min; for EC50: read-out: ED50 (cAMP)
T2 construct: Hollex encoded a protein of 474 amino acids; expressed in transfected cells; host or cells: BHK 570 / BHK/KZ10-20-48 (baby hamster kidney) stably transfected with pHollex
T2 sequence (P30988 25-474): T1 sequence (P30988 25-474)
Experimental: The cAMP response of the transfectant clones Hollex1 and Hollex2 to calcitonin and forskolin was also assayed by radioimmunoassay using the cAMP [^125 I] scintillation proximity assay system (Amersham) using the manufacturer's directions. Briefly, either 1×10^5 cells per well or 3×10^5 cells per well were plated into the wells of a 24-well culture dish and grown for 2 days (1×10^5 cells per well) or overnight (3×10^5 cells per well) in selection medium. Calcitonin and forskolin were prepared in DMEM, 10% fetal calf serum, 10 μM IBMX at 0.0001-1000 nM and 25 μM, respectively.
The growth medium was replaced with 200 μl/well of agonist (either calcitonin or forskolin). The cells were incubated with the agonists for 10 minutes at 37° C. in 5% CO2. Following incubation, 800 μl of boiling water was added to each well. After 15 minutes the supernatants were collected and diluted 1:5 or 1:40 in acetate buffer (cAMP [^125 I] Scintillation Proximity Assay System (Amersham)). Samples were acetylated using triethylamine and acetic anhydride according to the protocol provided by the manufacturer.
A 100 μl aliquot of each acetylated sample was combined with 75 μl of ^125 I-cAMP, 75 μl anti-succinyl cAMP antisera and 75 μl of donkey anti-rabbit IgG coupled SPA beads (all assay solutions provided in the cAMP [^125 I] Scintillation Proximity Assay System (Amersham)) in a well of an Dynatech MICROLITE 2 plate. The trays were sealed and incubated overnight with continuous shaking on a rotary platform shaker at 200 rpm. The samples were counted in a Packard Top Count Microplate Scintillation Counter (Packard Instrument Co., Meriden, Conn.). A standard curve of 2-128 fmol acetylated cAMP was also run. Total ^125 I-cAMP bound and nonspecific binding were also determined.

[2] = biological target: T2, human calcitonin receptor; experiment: Inositol triphosphate assay in BHK 570 cells expressing pHollex; assay type: cell-based
Experimental: BHK 570 cells expressing the calcitonin receptor from pHollex or mock-transfected BHK 570 cells were plated into 24-well tissue culture dishes at about 200,000 cells per well. After 24 hours, the cells in each well were labeled by incubation in 0.5 ml of Dulbecco's Modified Eagles Medium (DMEM, JRH Biosciences, Lenexa, Kans.) containing 10% fetal calf serum and 4.0 μCi/ml of myo-(2-^3 H) inositol (specific activity=20 Ci/mmol; Amersham). At the end of a 24 hour incubation, the cells were washed with 1 ml prewarmed DMEM that had been buffered with 20 mM Hepes, pH 7.0 (Sigma Chemical Co.) containing 10 mM LiCl. The wash medium was removed by aspiration and replaced with 900 μl of fresh buffered medium. The cells were incubated for five to fifteen minutes at 37° C. After incubation, appropriate concentration of each agonist or antagonist was added to triplicate wells, and the cells were incubated for 30 minutes at 37° C.
The reaction was terminated by placing the cells on ice. Following aspiration of the media, the cells were then lysed by the addition of 1 ml of cold DMEM and 1 ml of ice-cold 10% perchloric acid. After ten minutes the cell lysates were transferred to tubes containing 500 μl of 10 mM EDTA, pH 7.0. […] Ten milliliters of OPTIFLUOR (Packard Instrument Co., Menden, Conn.) were added to each sample, and the samples were counted. […]

bone resorption = settings: compared with human forms of calcitonin; background; cited from earlier work

salmon calcitonin
Kd (T47D cells): 0.6 ± 0.5 nM | EC50 ([1]; Hollex1): 0.07 nM | induction of cAMP ([1]; Hollex1, saturating concentrations (10-100 nM)): 12 fold | EC50 ([1]; Hollex2): 0.04 nM | induction of cAMP levels ([1]; Hollex2, saturating concentrations (10-100 nM)): 5 fold | EC50 ([2]; Hollex1, 30 min at 37° C., read-out: ED50 (inositol phosphate)): 9.5 nM | inositol phosphate response ([2]; Hollex2): no response | effectiveness in arresting bone resorption (bone resorption): considerably more effective
